ChEMBL document CHEMBL1240317, “Probing cell-division phenotype space and Polo-like kinase function using small molecules” (Nat Chem Biol, 2006)
Active and inactive are the calls of the source.

Columns and labels:
Type in all cases: functional, cell-based
BSC-1 [1] = test: Induction of deffects in mitotic spindle in african green monkey BSC1 cells at 20 uM after 4 hrs by immunocytochemistry; details: Chlorocebus aethiops
BSC-1 [2] = test: Antimitotic activity against african green monkey BSC1 cells assessed as induction of monopolar spindles at 20 uM by immunofluorescence microscopy; details: Chlorocebus aethiops
BSC-1 [3] = test: Antimitotic activity against african green monkey BSC1 cells assessed as induction of sphere like organization at 2.5 uM by immunofluorescence microscopy; details: Chlorocebus aethiops
U2OS [4] = test: Disruption of interphase microtubule organization in human U2OS cells at 250 uM after 4 hrs by immunofluorescence
U2OS [5] = test: Reduction in gamma-tubulin level in centrosomes in human U2OS cells at 250 uM after 4 hrs by immunofluorescence
BSC-1 [6] = test: Antimitotic activity against african green monkey BSC1 cells assessed as induction of chromosome alignment deffects at 20 uM by immunofluorescence microscopy; details: Chlorocebus aethiops
BSC-1 [7] = test: Antimitotic activity against african green monkey BSC1 cells assessed as induction of bipolar spindles with decrease in pole to pole distance at 20 uM by immunofluorescence microscopy; details: Chlorocebus aethiops
BSC-1 [8] = test: Induction of reduced mitotic index in african green monkey BSC1 cells at 20 uM after 4 hrs by immunocytochemistry; details: Chlorocebus aethiops
BSC-1 [9] = test: Antimitotic activity against african green monkey BSC1 cells assessed as induction of monopolar spindles and spindle pole deffects at 20 uM by immunofluorescence microscopy; details: Chlorocebus aethiops
BSC-1 [10] = test: Induction of severe microtubule disruption in african green monkey BSC1 cells at 20 uM after 4 hrs by immunocytochemistry; details: Chlorocebus aethiops

| Structure (SMILES) | Activity (BSC-1 [1]) | Activity (BSC-1 [8]) | Activity (BSC-1 [10]) | also measured |
| --- | --- | --- | --- | --- |
| CN1CCN(c2ccc(Nc3ncc([N+](=O)[O-])c(Nc4ccccc4C(=O)c4ccccc4)n3)cc2)CC1 | Active | – | – | Activity (BSC-1 [2]): Active; Activity (BSC-1 [3]): Active |
| COc1cc(OC)c(/C=C/S(=O)(=O)Cc2ccc(OC)c(NCC(=O)O)c2)c(OC)c1 | – | – | – | Activity (U2OS [4]): inactive; Activity (U2OS [5]): inactive |
| O=C(c1ccccc1)c1ccccc1Nc1nc(Nc2ccc3c(c2)OCO3)ncc1[N+](=O)[O-] | Active | – | – | Activity (BSC-1 [6]): Active |
| c1csc(CNc2nccc(Nc3ccc4c(c3)OCO4)n2)c1 | Active | – | – | Activity (BSC-1 [6]): Active |
| c1cc(Nc2ccc3c(c2)OCO3)nc(Nc2ccc3c(c2)CCC3)n1 | Active | – | – | Activity (BSC-1 [7]): Active |
| CCCCNc1nc(Nc2ccc(N3CCN(C)CC3)cc2)ncc1[N+](=O)[O-] | – | Active | – | Activity (BSC-1 [9]): Active |
| CC(C)(C)c1ccc(Nc2ncc([N+](=O)[O-])c(Nc3ccc(Cl)c(Cl)c3)n2)cc1 | Active | Active | Active | – |
| O=[N+]([O-])c1cnc(Nc2ccc3c(c2)CCC3)nc1Nc1ccc(Cl)c(Cl)c1 | Active | Active | Active | – |
| CCCCNc1ncc([N+](=O)[O-])c(Nc2ccc3[nH]ccc3c2)n1 | Active | Active | Active | – |
| CCCCNc1nc(Nc2ccc(C(C)(C)C)cc2)ncc1[N+](=O)[O-] | Active | Active | Active | – |
| NC(=O)c1ccccc1Nc1nc(NC2CCCC2)ncc1[N+](=O)[O-] | Active | Active | Active | – |
| O=C(c1ccccc1)c1ccccc1Nc1nc(Nc2ccc3c(c2)CCC3)ncc1[N+](=O)[O-] | Active | Active | Active | – |
| CC(=O)Nc1ccc(Nc2nccc(Nc3ccc4c(c3)CCC4)n2)cc1 | Active | Active | Active | – |
| CCN(CC)CCCC(C)Nc1ncc([N+](=O)[O-])c(NC2CCCC2)n1 (configuration not stated) | Active | Active | Active | – |
| O=[N+]([O-])c1cnc(Nc2ccc3[nH]ccc3c2)nc1Nc1ccc(Cl)c(Cl)c1 | Active | Active | Active | – |
| CC(C)(Nc1ncc([N+](=O)[O-])c(NC2CCCC2)n1)c1ccccc1 | Active | Active | Active | – |
| O=[N+]([O-])c1cnc(NC2CCCC2)nc1Nc1ccc2ncsc2c1 | Active | Active | Active | – |
| CCCCNc1ncc([N+](=O)[O-])c(NC2CCCC2)n1 | Active | Active | Active | – |
| CC(C)(Nc1ncc([N+](=O)[O-])c(Nc2ccc3ncsc3c2)n1)c1ccccc1 | Active | Active | Active | – |
| CC(C)(C)c1ccc(Nc2ncc([N+](=O)[O-])c(Sc3cccc(Cl)c3)n2)cc1 | Active | Active | Active | – |
| O=C(c1ccccc1)c1ccccc1Nc1ncc([N+](=O)[O-])c(Nc2ccc(Cl)c(Cl)c2)n1 | Active | Active | Active | – |
| CN1CCN(c2ccnc(NCc3cccs3)n2)CC1 | Active | Active | Active | – |
| O=[N+]([O-])c1cnc(NC2CCCC2)nc1Sc1cccc(Cl)c1 | Active | Active | Active | – |
| CC(=O)Nc1ccc(Nc2ncc([N+](=O)[O-])c(Sc3cccc(Cl)c3)n2)cc1 | Active | Active | Active | – |
